Drawing on the Kinase Knowledgebase extract (Sharma et al. 2016), this text covers IC50 for 62 compounds.

What is called IC50 is the concentration that inhibits the measured activity by half. A lower IC50 goes with higher potency.

Chain of EGFR (Human), P00533 [T790M/L858R] (P00533 whole entry T790M/L858R, looked up): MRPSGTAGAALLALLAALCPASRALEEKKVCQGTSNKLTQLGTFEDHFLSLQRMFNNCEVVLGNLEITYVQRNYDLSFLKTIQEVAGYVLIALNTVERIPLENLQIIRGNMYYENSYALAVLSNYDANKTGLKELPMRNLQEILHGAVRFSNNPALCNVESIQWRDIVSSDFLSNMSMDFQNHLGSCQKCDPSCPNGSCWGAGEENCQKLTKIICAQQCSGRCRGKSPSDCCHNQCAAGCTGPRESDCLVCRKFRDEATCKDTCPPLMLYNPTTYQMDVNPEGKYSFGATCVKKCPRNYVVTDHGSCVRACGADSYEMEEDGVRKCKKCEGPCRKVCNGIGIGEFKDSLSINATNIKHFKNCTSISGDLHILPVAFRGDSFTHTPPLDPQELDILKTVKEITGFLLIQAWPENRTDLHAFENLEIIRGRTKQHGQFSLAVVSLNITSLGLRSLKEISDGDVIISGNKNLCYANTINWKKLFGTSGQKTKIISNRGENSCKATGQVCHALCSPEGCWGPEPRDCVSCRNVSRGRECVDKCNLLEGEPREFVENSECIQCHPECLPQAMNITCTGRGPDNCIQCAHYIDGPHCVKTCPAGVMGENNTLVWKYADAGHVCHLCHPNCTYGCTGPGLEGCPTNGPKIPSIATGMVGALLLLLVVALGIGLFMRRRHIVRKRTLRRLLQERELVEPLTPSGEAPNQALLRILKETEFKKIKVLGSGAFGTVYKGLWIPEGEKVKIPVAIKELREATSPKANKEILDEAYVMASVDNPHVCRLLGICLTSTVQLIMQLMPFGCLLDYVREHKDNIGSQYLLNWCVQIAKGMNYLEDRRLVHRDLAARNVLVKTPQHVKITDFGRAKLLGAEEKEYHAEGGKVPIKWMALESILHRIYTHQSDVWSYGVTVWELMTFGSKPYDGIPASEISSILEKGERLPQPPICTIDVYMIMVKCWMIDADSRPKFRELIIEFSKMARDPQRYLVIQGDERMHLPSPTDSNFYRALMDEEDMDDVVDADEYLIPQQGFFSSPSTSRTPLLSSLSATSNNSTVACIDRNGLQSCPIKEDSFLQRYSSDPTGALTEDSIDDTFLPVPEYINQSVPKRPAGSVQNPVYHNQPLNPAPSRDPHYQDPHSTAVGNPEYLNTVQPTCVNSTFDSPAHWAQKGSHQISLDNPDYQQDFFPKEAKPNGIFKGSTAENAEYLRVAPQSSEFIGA
Chain of EGFR (human) (P00533 whole entry, looked up): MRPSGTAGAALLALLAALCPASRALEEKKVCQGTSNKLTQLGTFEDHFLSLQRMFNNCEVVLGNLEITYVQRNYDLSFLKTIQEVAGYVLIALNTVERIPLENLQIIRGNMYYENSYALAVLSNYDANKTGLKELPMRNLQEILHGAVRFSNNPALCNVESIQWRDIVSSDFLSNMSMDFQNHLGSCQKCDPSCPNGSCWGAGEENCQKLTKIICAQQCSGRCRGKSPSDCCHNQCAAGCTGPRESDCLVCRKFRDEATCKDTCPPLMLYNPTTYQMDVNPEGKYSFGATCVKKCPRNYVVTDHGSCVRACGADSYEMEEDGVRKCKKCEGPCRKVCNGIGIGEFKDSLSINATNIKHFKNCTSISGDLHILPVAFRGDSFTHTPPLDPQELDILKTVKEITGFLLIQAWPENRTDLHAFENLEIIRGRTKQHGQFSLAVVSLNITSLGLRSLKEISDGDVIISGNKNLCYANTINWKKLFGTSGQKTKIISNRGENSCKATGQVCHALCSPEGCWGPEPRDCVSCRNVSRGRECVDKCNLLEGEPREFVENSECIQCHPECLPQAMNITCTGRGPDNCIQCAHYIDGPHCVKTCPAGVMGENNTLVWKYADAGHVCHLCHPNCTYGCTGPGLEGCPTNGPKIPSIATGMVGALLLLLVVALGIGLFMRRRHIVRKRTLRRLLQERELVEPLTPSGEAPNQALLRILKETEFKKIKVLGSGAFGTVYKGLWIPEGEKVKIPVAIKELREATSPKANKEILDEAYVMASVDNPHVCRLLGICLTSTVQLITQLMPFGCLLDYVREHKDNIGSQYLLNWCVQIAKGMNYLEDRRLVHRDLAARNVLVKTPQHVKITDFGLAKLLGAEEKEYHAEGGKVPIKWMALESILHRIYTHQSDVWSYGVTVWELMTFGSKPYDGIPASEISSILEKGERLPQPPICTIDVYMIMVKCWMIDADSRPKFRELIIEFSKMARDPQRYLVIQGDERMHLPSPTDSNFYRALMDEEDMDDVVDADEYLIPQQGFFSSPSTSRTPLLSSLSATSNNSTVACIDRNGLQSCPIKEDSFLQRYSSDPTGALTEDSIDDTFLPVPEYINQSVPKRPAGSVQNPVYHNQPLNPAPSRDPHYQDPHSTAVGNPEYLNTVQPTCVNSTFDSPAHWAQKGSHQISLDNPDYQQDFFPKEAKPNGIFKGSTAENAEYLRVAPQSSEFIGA

One assay concerns the target EGFR (human) (UniProt P00533).
On to `C=CC(=O)Nc1ccc(C)c(Nc2nccc(-c3cccnc3)n2)c1`, for which the IC50 came to 2.23 nM.

Another assay addresses EGFR (Human), P00533 [T790M/L858R].
Compound `C=CC(=O)Nc1cccc(Nc2ncc(C)c(Nc3ccccc3)n2)c1` came in with an IC50 of no more than 10 nM.
As for `C#CCOc1cccc(Nc2ncc(C)c(Nc3cccc(NC(=O)C=C)c3)n2)c1`, the IC50 was no more than 10 nM.
Turning to `C=CC(=O)Nc1cccc(Nc2ncc(F)c(Nc3cccc(C)c3)n2)c1`, the IC50 was no more than 10 nM.
The compound `C=CC(=O)Nc1ccc(C)c(Nc2nccc(-c3cccnc3)n2)c1` showed an IC50 of no more than 10 nM.
The compound `C=CC(=O)Nc1cccc(Nc2nc(Nc3ccccc3)ncc2C)c1` returned an IC50 of no more than 10 nM.
Same read-out and setting: to `C=CC(=O)Nc1ccc(C)c(Nc2ncc(C)c(Nc3cccc(C)c3)n2)c1` belongs no more than 10 nM; to `Cc1cnc(Nc2cccc(S(N)(=O)=O)c2)nc1Nc1ccc2c(c1)CCN(C(=O)CCl)C2`, no more than 10 nM.
`C=CC(=O)Nc1cccc(Nc2nccc(Nc3cccc(C)c3)n2)c1` gave an IC50 of no more than 10 nM.
Same read-out and setting: to `C=CC(=O)Nc1cccc(Nc2nc(Nc3ccc(OCCOC)c(F)c3)ncc2F)c1` belongs no more than 10 nM.
`Cc1cnc(Nc2ccccc2)nc1Nc1cccc(NC(=O)/C=C/CN(C)C)c1` displayed an IC50 of no more than 10 nM.
Take `C=CC(=O)Nc1cccc(Nc2ncc(C)c(Nc3cccc(C)c3)n2)c1`: the IC50 is no more than 10 nM.
Consider `Cc1cccc(Nc2nc(Nc3cccc(NC(=O)/C=C/CN(C)C)c3)ncc2F)c1`, for which the IC50 is no more than 10 nM.

The target in the next assay is EGFR (human), P00533 [T790M].
Chain of EGFR (human), P00533 [T790M] (P00533 whole entry T790M, looked up): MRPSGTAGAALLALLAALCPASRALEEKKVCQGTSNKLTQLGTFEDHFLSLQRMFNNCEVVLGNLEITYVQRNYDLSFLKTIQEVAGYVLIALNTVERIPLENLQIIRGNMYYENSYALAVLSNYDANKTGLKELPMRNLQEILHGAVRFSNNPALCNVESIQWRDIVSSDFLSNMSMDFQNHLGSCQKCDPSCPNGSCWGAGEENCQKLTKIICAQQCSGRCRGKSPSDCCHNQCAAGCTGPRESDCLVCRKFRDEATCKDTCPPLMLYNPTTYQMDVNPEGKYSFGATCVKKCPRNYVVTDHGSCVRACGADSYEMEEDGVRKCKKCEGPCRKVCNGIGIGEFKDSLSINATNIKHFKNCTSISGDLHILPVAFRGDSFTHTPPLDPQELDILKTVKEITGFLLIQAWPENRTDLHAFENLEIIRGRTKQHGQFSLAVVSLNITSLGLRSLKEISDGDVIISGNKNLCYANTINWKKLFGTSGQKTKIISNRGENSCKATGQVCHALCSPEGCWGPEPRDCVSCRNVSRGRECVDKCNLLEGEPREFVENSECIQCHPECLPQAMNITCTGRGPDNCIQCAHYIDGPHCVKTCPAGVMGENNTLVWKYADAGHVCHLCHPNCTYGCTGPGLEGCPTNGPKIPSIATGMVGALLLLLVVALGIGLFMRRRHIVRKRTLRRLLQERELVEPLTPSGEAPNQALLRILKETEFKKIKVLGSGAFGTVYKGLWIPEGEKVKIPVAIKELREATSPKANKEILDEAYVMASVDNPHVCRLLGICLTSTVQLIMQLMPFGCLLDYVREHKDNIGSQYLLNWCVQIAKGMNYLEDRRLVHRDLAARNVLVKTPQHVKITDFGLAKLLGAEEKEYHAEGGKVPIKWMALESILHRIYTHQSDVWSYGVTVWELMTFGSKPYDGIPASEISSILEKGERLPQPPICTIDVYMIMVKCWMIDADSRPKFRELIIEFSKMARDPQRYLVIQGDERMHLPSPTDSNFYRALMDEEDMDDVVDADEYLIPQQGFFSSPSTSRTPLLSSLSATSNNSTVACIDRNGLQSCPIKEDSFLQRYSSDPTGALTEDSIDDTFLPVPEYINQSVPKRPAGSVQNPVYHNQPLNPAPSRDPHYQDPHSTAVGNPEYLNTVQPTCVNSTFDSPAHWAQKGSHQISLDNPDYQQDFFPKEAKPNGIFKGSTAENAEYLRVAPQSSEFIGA
Regarding `C=CC(=O)Nc1cccc(Nc2ncc(F)c(Nc3cccc(C)c3)n2)c1`, the IC50 was no more than 10 nM.
Still for that read-out and setting: to `C=CC(=O)Nc1cccc(Nc2nc(Nc3ccc(OCCOC)c(F)c3)ncc2F)c1` belongs no more than 10 nM.
Turning to `C=CC(=O)Nc1cccc(Nc2ncc(C)c(Nc3cccc(C)c3)n2)c1`, the IC50 is no more than 10 nM.
On to `Cc1cccc(Nc2nc(Nc3cccc(NC(=O)/C=C/CN(C)C)c3)ncc2F)c1`, for which the IC50 was no more than 10 nM.

A further assay deals with EGFR (human), P00533 [WT].
Chain of EGFR (human), P00533 [WT] (P00533 whole entry, looked up): as the sequence (P00533 whole entry, looked up) above
`C=CC(=O)Nc1cccc(Oc2nc(Nc3cccc(OCCCN4CCCC4=O)c3)ncc2F)c1` displayed an IC50 of no more than 10 nM.
Still for that read-out and setting: to `C=CC(=O)Nc1cccc(Oc2nc(Nc3cccc(OCCCS(C)(=O)=O)c3)ncc2F)c1` belongs no more than 10 nM; to `C=CC(=O)Nc1cccc(Nc2nc(Nc3ccc(OCC4CCN(C)CC4)cc3)ncc2F)c1`, no more than 10 nM.
Same read-out and setting: to `C=CC(=O)Nc1cccc(Nc2ncc(C)c(Nc3ccccc3)n2)c1` belongs no more than 10 nM; to `C=CC(=O)Nc1cccc(Nc2nc(Nc3ccc(OCC4CCN(C)CC4)nc3)ncc2F)c1`, no more than 10 nM.
On to `COCCN(C)C/C=C/C(=O)Nc1cccc(Nc2ncc(F)c(Nc3cccc(C)c3)n2)c1`, for which the IC50 was no more than 10 nM.
`C=CC(=O)Nc1cccc(Oc2nc(Nc3cccc(OC)c3)ncc2C(N)=O)c1`: the IC50 is no more than 10 nM.
As for `C=CC(=O)Nc1cccc(Nc2nc(Nc3ccc(OCCOC)c(F)c3)ncc2C#N)c1`, the IC50 was no more than 10 nM.
In turn, `C=CC(=O)Nc1cccc(Nc2ncc(F)c(Nc3cccc(C)c3)n2)c1` registered an IC50 of no more than 10 nM.
Compound `C=CC(=O)Nc1cccc(Nc2nc(Nc3ccccc3)ncc2C#N)c1` showed an IC50 of no more than 10 nM.
Same read-out and setting: to `C=CC(=O)Nc1cccc(Nc2nc(Nc3ccc4[nH]ncc4c3)ncc2F)c1` belongs no more than 10 nM; to `Cc1cccc(Nc2nc(Nc3cccc(NC(=O)/C=C/CN4CC[C@@H](O)C4)c3)ncc2F)c1`, no more than 10 nM; to `C=CC(=O)Nc1cccc(Oc2nc(Nc3cccc(OC)c3)ncc2C(=O)NC2CC2)c1`, no more than 10 nM.
The same measure, in the same setting: to `C=CC(=O)Nc1cccc(Nc2nc(Nc3cccc(CO)c3)ncc2F)c1` belongs no more than 10 nM.
With `Cc1cccc(Nc2nc(Nc3cccc(NC(=O)/C=C/CN(C)C)c3)ncc2C)c1`, the IC50 is no more than 10 nM.
As for `C=CC(=O)Nc1cccc(Nc2nc(Nc3ccccc3)ncc2C(F)(F)F)c1`, the IC50 is no more than 10 nM.
For the compound `C=CC(=O)Nc1cccc(Nc2nc(Nc3ccc4c(c3)NCCO4)ncc2F)c1`, the IC50 was no more than 10 nM.
Regarding `C=CC(=O)Nc1cccc(Oc2nc(Nc3cccc(OCC4CCN(C)CC4)c3)ncc2F)c1`, the concentration for half-maximal inhibition (IC50) was no more than 10 nM.
In turn, `C=CC(=O)Nc1cccc(Nc2nc(Nc3ccc(OC)nc3)ncc2C#N)c1` registered an IC50 of no more than 10 nM.
In turn, `C=CC(=O)Nc1ccc(Nc2nc(Nc3ccc(OC)nc3)ncc2C(F)(F)F)cc1` registered an IC50 of no more than 10 nM.
For the compound `C=CC(=O)Nc1cccc(Nc2nc(Nc3cccc(S(N)(=O)=O)c3)ncc2F)c1`, the IC50 is no more than 10 nM.
`C=CC(=O)Nc1cccc(Nc2nc(Nc3ccccc3)ncc2C)c1`: the IC50 was no more than 10 nM.
`C=CC(=O)N1CCOc2ccc(Nc3nc(Nc4ccc(OCCOC)cc4)ncc3C(C)=O)cc21` yielded an IC50 of no more than 10 nM.
On to `C=CC(=O)Nc1cccc(Nc2nc(Nc3cccc(OCC4CCN(C)CC4)c3)ncc2F)c1`, for which the 50% inhibitory concentration (IC50) is no more than 10 nM.
In turn, `C=CC(=O)Nc1cccc(Oc2nc(Nc3cccc(OC)c3)ncc2C(=O)Nc2ccccc2)c1` came in with a concentration for half-maximal inhibition (IC50) of no more than 10 nM.
On the same count and under the same terms, to `C=CC(=O)Nc1cccc(Oc2nc(Nc3ccc(OC)nc3)ncc2C(=O)NC2CC2)c1` belongs no more than 10 nM; to `C=CC(=O)Nc1cccc(Nc2nc(Nc3cccc(S(N)(=O)=O)c3)ncc2C)c1`, no more than 10 nM.
`C=CC(=O)Nc1ccc(C)c(Nc2ncc(C)c(Nc3cccc(C)c3)n2)c1` returned a half-maximal inhibitory concentration (IC50) of no more than 10 nM.
Turning to `Cc1cnc(Nc2cccc(S(N)(=O)=O)c2)nc1Nc1ccc2c(c1)CCN(C(=O)CCl)C2`, the IC50 was no more than 10 nM.
Same read-out and setting: to `C=CC(=O)Nc1cccc(Nc2nccc(Nc3cccc(C)c3)n2)c1` belongs no more than 10 nM.
With `C=CC(=O)Nc1cccc(Oc2nc(Nc3ccc(OC)nc3)ncc2C(C)=O)c1`, the concentration for half-maximal inhibition (IC50) was no more than 10 nM.
As to `C=CC(=O)Nc1cccc(Nc2nc(Nc3ccc(OCC(O)CO)c(F)c3)ncc2F)c1` (centres undefined), the IC50 was no more than 10 nM.
Regarding `C=CC(=O)Nc1cccc(Nc2nc(Nc3ccc(N4CCS(=O)(=O)CC4)nc3)ncc2F)c1`, the 50% inhibitory concentration (IC50) is no more than 10 nM.
As for `C=CC(=O)Nc1cccc(Nc2nc(Nc3ccc(OCCOC)cc3)ncc2F)c1`, the 50% inhibitory concentration (IC50) is no more than 10 nM.
Compound `C=CC(=O)Nc1cccc(Nc2nc(Nc3cccc(OCCCN4CCCC4=O)c3)ncc2F)c1` had a concentration for half-maximal inhibition (IC50) of no more than 10 nM.
For the compound `C=CC(=O)Nc1cccc(Nc2nc(Nc3cccc(OCC(O)CO)c3)ncc2F)c1` (centres undefined), the concentration for half-maximal inhibition (IC50) is no more than 10 nM.
Same read-out and setting: to `C=CC(=O)Nc1cccc(Nc2nc(Nc3ccc(OCCOC)c(F)c3)ncc2C(F)(F)F)c1` belongs no more than 10 nM; to `C=CC(=O)Nc1cccc(Oc2nc(Nc3cccc(N4CCN(CCO)CC4)c3)ncc2F)c1`, no more than 10 nM.
The same measure, in the same setting: to `C=CC(=O)Nc1cccc(Nc2nc(Nc3ccc(OCCCNC(=O)OC(C)(C)C)cc3)ncc2F)c1` belongs no more than 10 nM.
For `C=CC(=O)Nc1cccc(Oc2nc(Nc3cccc(OCCN4CCCC4=O)c3)ncc2F)c1`, the IC50 is no more than 10 nM.
The compound `C=CC(=O)N1CCOc2ccc(Nc3nc(Nc4ccc(N5CCOCC5)cc4)ncc3C(C)=O)cc21` showed an IC50 of no more than 10 nM.
Take `C=CC(=O)Nc1cccc(Nc2nc(Nc3ccc(OCCOC)cc3)ncc2C#N)c1`: the IC50 was no more than 10 nM.
In turn, `C=CC(=O)Nc1cccc(Oc2nc(Nc3ccccc3)ncc2C)c1` displayed an IC50 of no more than 10 nM.
On to `C=C(C)C(=O)Cc1cccc(Nc2nc(Nc3ccc(OCCOC)c(F)c3)ncc2F)c1`, for which the IC50 is no more than 10 nM.
The compound `C=CC(=O)Nc1cccc(Nc2nc(Nc3ccc4c(c3)CC(=O)N4)ncc2F)c1` returned an IC50 of no more than 10 nM.
`C=CC(=O)Nc1cccc(Oc2nc(Nc3ccc(OCCOC)cc3)ncc2C2CC2)c1` showed an IC50 of no more than 10 nM.
With `C=CC(=O)Nc1cccc(Nc2nc(Nc3ccc4c(cnn4C)c3)ncc2F)c1`, the IC50 was no more than 10 nM.
In turn, `C=CC(=O)Nc1cccc(Oc2nc(Nc3ccc(OC)nc3)ncc2C)c1` returned an IC50 of no more than 10 nM.
For the compound `C=CC(=O)Nc1cccc(Nc2nc(Nc3cccc(OCC4CCCN(C)C4)c3)ncc2F)c1` (centres undefined), the IC50 was no more than 10 nM.
`Cc1cccc(Nc2nc(Nc3cccc(NC(=O)/C=C/CN(C)C)c3)ncc2F)c1` displayed an IC50 of no more than 10 nM.
On to `C=CC(=O)Nc1cccc(Nc2nc(Nc3ccc(OCC(O)CO)cc3)ncc2F)c1` (centres undefined), for which the IC50 is no more than 10 nM.
Take `C=CC(=O)Nc1cccc(Nc2nc(Nc3ccc(OC)nc3)ncc2C2CC2)c1`: the IC50 is no more than 10 nM.
Still for that read-out and setting: to `C=CC(=O)Nc1cccc(Oc2nc(Nc3cccc(OCC4CCCN(C)C4)c3)ncc2F)c1` (centres undefined) belongs no more than 10 nM; to `C=CC(=O)N1CCC[C@@H](Nc2nc(Nc3cccc(Cl)c3)ncc2F)C1`, no more than 10 nM; to `Cc1cccc(Nc2nc(Nc3cccc(NC(=O)/C=C/CN4CC[C@H](O)C4)c3)ncc2F)c1`, no more than 10 nM.
For the compound `C=CC(=O)Nc1cccc(Nc2nc(Nc3cccc(OCCN(C)C)c3)ncc2F)c1`, the IC50 is no more than 10 nM.
Take `C=CC(=O)Nc1cccc(Oc2nc(Nc3ccc(OC)nc3)ncc2C(=O)Nc2ccccc2)c1`: the IC50 is no more than 10 nM.
